In assay [1] the target is Integrin alpha-5/beta-1 (Homo sapiens, UniProt P05556+P08648). The assay is described as follows: Inhibition of alpha5-beta1 integrin receptor in ELISA. Format: protein-complex assay. For orientation: In an ELISA, binding on a coated surface is turned into a signal by an enzyme label.
For assay [2], the target named is Integrin alpha-V/beta-3 (Homo sapiens, UniProt P05106+P06756). The assay is described as follows: Inhibition of fibrinogen binding to alphaV-beta3 integrin receptor. Type of assay: protein-complex assay.
The target of assay [3] is Integrin alpha-IIb/beta-3 (Homo sapiens, UniProt P05106+P08514). Briefly: Inhibition of alpha IIb beta3 integrin receptor in human platelet rich plasma.

Among the data in ChEMBL document CHEMBL1144453, “Ligand binding analysis for human alpha5beta1 integrin: strategies for designing new alpha5beta1 integrin antagonists” (J Med Chem, 2005) are IC50 values, retold here.

The structures appear in SMILES notation.

Integrin alpha-V/beta-3, sequence (P05106 27-788 limits assumed): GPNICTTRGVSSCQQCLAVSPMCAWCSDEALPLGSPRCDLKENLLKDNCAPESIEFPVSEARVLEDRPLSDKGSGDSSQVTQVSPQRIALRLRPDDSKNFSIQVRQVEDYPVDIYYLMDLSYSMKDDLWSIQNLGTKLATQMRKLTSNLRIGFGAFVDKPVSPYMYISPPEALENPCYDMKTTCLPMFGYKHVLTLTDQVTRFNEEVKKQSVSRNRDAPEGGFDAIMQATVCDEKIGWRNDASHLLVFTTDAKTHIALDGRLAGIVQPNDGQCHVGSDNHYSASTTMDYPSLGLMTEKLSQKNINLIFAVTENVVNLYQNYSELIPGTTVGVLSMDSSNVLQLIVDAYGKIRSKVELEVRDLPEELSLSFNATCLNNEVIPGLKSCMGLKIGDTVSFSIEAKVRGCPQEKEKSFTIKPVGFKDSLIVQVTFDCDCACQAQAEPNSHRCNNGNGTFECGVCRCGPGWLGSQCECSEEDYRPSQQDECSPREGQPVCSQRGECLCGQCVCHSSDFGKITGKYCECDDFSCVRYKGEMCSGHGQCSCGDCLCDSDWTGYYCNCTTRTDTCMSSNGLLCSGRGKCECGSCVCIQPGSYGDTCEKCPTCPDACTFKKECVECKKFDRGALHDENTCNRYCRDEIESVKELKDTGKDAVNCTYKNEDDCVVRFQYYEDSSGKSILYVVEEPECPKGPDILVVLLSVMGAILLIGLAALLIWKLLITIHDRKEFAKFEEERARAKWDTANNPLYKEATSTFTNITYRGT
Integrin alpha-V/beta-3, sequence (P06756 31-889 limits assumed): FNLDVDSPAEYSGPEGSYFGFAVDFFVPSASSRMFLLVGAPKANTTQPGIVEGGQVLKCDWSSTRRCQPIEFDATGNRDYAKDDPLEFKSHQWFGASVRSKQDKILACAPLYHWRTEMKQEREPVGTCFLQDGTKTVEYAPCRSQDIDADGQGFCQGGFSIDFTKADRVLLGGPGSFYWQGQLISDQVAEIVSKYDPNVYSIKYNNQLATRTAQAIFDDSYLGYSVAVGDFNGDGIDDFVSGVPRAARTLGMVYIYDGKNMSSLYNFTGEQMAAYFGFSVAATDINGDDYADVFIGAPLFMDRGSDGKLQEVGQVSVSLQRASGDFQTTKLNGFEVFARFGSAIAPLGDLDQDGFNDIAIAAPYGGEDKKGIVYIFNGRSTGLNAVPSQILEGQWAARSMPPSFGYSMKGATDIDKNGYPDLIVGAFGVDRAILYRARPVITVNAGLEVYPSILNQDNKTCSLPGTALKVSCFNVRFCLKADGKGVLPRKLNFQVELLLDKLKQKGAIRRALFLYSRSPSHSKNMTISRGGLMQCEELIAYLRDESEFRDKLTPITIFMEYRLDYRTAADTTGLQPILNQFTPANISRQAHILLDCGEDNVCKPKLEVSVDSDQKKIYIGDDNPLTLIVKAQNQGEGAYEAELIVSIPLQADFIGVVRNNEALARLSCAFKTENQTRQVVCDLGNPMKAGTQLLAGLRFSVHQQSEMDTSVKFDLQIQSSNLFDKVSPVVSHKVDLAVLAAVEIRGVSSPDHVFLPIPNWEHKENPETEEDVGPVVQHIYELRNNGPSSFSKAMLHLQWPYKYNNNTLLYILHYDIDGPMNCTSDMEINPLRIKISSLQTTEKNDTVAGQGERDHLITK
Integrin alpha-V/beta-3, sequence (P06756 891-1048 limits assumed): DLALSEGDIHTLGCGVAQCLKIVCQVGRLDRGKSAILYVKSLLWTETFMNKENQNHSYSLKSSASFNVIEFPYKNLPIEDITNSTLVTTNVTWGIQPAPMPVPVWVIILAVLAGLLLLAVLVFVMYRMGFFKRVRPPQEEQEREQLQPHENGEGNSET
Integrin alpha-IIb/beta-3, sequence (P05106 27-788 limits assumed): as the sequence (P05106 27-788 limits assumed) above
Integrin alpha-IIb/beta-3, sequence (P08514 32-887 limits assumed): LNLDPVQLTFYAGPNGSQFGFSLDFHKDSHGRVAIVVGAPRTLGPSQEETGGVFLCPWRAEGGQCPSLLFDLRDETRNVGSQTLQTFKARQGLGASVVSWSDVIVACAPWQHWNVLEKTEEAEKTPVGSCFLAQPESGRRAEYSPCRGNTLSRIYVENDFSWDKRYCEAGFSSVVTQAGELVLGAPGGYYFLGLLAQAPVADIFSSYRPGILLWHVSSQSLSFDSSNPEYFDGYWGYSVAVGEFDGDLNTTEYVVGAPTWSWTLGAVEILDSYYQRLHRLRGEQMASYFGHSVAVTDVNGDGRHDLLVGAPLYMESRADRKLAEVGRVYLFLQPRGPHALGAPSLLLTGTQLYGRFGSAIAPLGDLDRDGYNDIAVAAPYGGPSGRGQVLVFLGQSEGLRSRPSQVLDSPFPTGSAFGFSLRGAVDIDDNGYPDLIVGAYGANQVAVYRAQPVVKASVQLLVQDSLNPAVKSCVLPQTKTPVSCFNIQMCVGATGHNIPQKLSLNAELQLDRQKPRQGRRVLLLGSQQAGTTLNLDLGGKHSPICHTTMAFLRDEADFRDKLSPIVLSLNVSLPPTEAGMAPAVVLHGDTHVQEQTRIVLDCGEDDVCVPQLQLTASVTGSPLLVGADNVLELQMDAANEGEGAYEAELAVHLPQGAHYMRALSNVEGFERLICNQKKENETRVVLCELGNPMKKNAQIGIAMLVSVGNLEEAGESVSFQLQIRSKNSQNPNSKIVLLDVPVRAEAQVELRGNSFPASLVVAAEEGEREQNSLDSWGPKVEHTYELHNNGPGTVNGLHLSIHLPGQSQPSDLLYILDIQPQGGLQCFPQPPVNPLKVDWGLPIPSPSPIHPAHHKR
Integrin alpha-IIb/beta-3, sequence (P08514 891-1039 limits assumed): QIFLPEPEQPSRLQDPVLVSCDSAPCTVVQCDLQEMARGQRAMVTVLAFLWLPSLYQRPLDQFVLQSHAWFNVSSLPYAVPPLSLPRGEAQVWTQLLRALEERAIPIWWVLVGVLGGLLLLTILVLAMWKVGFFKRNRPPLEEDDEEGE
Integrin alpha-5/beta-1, sequence (P05556 21-798 limits assumed): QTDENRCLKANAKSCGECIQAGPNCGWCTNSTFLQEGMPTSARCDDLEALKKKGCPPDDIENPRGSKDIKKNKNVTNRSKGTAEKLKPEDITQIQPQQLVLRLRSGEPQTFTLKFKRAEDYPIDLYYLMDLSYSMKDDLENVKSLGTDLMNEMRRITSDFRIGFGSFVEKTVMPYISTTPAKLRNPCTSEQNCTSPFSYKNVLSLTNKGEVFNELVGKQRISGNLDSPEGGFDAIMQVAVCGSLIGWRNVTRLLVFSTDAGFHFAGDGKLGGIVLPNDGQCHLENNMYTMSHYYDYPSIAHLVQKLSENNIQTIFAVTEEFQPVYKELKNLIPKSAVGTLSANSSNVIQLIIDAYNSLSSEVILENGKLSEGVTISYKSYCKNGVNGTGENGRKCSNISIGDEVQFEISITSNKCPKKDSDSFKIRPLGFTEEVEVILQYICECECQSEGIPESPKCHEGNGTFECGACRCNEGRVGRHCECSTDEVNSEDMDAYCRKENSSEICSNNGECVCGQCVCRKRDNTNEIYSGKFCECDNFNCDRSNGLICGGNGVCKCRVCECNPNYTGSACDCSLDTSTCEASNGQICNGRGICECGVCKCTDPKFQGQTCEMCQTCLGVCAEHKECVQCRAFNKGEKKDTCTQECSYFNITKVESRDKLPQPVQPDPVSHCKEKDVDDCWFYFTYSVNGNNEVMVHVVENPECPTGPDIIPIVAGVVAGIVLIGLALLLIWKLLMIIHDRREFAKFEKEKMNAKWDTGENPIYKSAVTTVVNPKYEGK
Integrin alpha-5/beta-1, sequence (P08648 42-894 limits assumed): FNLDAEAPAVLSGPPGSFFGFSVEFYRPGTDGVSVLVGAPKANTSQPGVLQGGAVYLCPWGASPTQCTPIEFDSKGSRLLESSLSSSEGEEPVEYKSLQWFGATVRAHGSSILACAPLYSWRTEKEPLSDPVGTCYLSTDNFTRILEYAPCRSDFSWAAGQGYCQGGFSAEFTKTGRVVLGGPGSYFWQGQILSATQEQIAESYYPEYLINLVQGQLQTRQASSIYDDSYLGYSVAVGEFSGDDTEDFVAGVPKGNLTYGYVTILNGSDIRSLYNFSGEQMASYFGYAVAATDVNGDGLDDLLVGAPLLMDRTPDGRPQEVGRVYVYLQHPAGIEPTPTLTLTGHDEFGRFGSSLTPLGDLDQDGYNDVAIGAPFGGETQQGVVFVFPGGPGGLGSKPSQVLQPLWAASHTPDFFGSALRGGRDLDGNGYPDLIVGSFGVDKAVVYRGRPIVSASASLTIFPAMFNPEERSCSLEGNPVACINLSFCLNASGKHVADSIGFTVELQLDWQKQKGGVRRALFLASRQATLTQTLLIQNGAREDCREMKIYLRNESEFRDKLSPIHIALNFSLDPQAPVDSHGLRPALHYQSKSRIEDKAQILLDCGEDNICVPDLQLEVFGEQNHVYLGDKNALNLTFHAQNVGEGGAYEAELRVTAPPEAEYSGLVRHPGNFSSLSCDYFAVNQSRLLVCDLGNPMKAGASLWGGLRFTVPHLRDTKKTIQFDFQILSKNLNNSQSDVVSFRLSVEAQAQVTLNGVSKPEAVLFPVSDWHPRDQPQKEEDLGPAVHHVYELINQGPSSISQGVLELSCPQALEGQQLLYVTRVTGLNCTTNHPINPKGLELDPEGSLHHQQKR
Integrin alpha-5/beta-1, sequence (P08648 895-1049 limits assumed): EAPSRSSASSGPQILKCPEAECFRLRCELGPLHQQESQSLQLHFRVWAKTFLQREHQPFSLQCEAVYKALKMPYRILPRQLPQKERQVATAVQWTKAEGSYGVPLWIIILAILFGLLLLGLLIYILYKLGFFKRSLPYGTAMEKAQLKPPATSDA

As to `Cc1cc(C)c(S(=O)(=O)N[C@@H](CNC(=O)C2=NO[C@]3(C2)C[C@@H](CNC2NC=CN2)N(C(=O)OCc2ccccc2)C3)C(=O)O)c(C)c1`, the IC50 in assay [1] was 13 nM; in assay [2] it was 57 nM; in assay [3], 7.3 µM.
Take `Cc1cc(C)c(S(=O)(=O)N[C@@H](CNC(=O)C2=NO[C@]3(C2)C[C@@H](CNc2ccccn2)N(C(=O)OCc2ccccc2)C3)C(=O)O)c(C)c1`: the IC50 was 49 nM in assay [2] and over 100 µM in assay [3].
Consider `Cc1cc(C)c(S(=O)(=O)N[C@@H](CNC(=O)C2=NO[C@]3(C2)C[C@@H](CNc2ncc[nH]2)N(C(=O)OCc2cccnc2)C3)C(=O)O)c(C)c1`, for which the IC50 in assay [2] came to 32 nM; in assay [3] it was 5.6 µM.
On the same counts, the results for `Cc1cc(C)c(S(=O)(=O)N[C@@H](CNC(=O)C2=NO[C@]3(CN[C@H](CNc4ncc[nH]4)C3)C2)C(=O)O)c(C)c1` are 180 nM and 1.4 µM.
On the same counts, the results for `COC(=O)N1C[C@@]2(CC(C(=O)NC[C@H](NS(=O)(=O)c3c(C)cc(C)cc3C)C(=O)O)=NO2)C[C@H]1CNc1nc2ccccc2[nH]1` are 34 nM and over 100 µM.
On the same counts, the results for `COC(=O)N1C[C@@]2(CC(C(=O)NC[C@H](NS(=O)(=O)c3c(C)cc(C)cc3C)C(=O)O)=NO2)C[C@H]1CNc1ncc[nH]1` are 57 nM and 7.3 µM.
In the case of `Cc1cc(C)c(S(=O)(=O)N[C@@H](CNC(=O)C2=NO[C@]3(C2)C[C@@H](CNc2ncc[nH]2)N(C(=O)OCc2ccccc2)C3)C(=O)O)c(C)c1`, the IC50 in assay [2] amounted to 41 nM; in assay [3], 34 µM.
As to `Cc1cc(C)c(S(=O)(=O)N[C@@H](CNC(=O)C2=NOC3(C2)C[C@@H](CNC2NC=CN2)N(C(=O)OCc2ccccc2)C3)C(=O)O)c(C)c1` (single isomer, unassigned), the IC50 was 1200 nM in assay [1], over 1000 nM in assay [2] and 9.2 µM in assay [3].
Turning to `CCCCOC(=O)N1C[C@@]2(CC(C(=O)NC[C@H](NS(=O)(=O)c3c(C)cc(C)cc3C)C(=O)O)=NO2)C[C@H]1CNc1ncc[nH]1`, the IC50 in assay [2] amounted to 130 nM; in assay [3], 11 µM.
The matching figures for `CCCCOC(=O)N1C[C@@]2(CC(C(=O)NC[C@H](NS(=O)(=O)c3c(C)cc(C)cc3C)C(=O)O)=NO2)C[C@H]1CNc1nc2ccccc2[nH]1`: 87 nM and over 100 µM.

Broadly, the IC50 is the concentration at which inhibition is half-maximal.
